The experiment concerns the target T1, M1 acetylcholine receptors (Homo sapiens, UniProt P11229).
T1 construct: expressed in transfected cells; host or cells: Chinese Hamster Ovary (CHO) cells, CMV vector
T1 sequence (P11229 1-460): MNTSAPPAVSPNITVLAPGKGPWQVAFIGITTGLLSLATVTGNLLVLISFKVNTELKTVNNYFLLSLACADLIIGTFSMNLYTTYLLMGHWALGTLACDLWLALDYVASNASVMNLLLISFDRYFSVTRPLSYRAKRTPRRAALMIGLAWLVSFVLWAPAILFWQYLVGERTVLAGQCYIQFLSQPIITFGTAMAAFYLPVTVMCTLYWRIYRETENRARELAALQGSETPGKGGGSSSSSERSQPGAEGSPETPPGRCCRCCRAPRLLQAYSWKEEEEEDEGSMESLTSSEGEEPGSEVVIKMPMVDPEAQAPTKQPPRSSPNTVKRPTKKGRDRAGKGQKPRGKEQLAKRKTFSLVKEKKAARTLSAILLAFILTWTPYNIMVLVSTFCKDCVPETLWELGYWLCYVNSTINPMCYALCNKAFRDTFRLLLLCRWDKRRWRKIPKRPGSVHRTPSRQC
As to the kind of experiment: Phosphoinositide (PI) hydrolysis in transfected CHO cells. The experiment is classed as cell-based. The settings on record: statement in words, no figures given. On the procedure:
The tubes are incubated for one hour at 37° C. The reaction is quenched with chloroform and the phosphatidyl inositols are extracted with methanol and chloroform. Phase separation is assured with the addition of methanol and water followed by centrifugation. The tritiated inositol phosphates are recovered on BioRad AG 1-X8 anion exchange resin in the formate cycle. After washing the resin with water and myo-inositol, the inositol phosphates are eluted with ammonium formate/formic acid, collected and subjected to liquid scintillation spectroscopy.

As to `CNC(=O)O[C@@H]1C[N+]2([O-])CC[C@@H]1C2` (relative stereo) [Example 1, (exo)--Methylcarbamic acid 1-oxy-1-aza-bicyclo[2.2.1]hept-3-yl ester], the “functional m1 muscarinic agonism” value was “enhanced muscarinic agonism”.

The values are drawn from patent publication US5773458A, “1-azabicycloheptane derivatives” (American Home Products Corporation, priority 1997, dated 1998).
